Data reported in PubChem BioAssay (NCI).
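Each compound was tested at five concentrations against cells in 96-well plates for 48 hours. TGI marks complete inhibition of growth.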

Legend:
Test in all cases: inhibition of tumour cell growth, NCI panel, 48 h
SNB-75 CNS = tested on: SNB-75 CNS
UO-31 renal = tested on: UO-31 renal
DU-145 prostate = tested on: DU-145 prostate
HCC-2998 colon = tested on: HCC-2998 colon
K-562 leukemia = tested on: K-562 leukemia
HOP-62 NSCLC = tested on: HOP-62 NSCLC
786-0 renal = tested on: 786-0 renal
M14 melanoma = tested on: M14 melanoma
ACHN renal = tested on: ACHN renal
MALME-3M melanoma = tested on: MALME-3M melanoma
NCI-H226 lung = tested on: NCI-H226 lung
BT-549 breast = tested on: BT-549 breast
HCT-116 colon = tested on: HCT-116 colon
SF-268 CNS = tested on: SF-268 CNS
IGROV1 ovarian = tested on: IGROV1 ovarian
NCI-H23 lung = tested on: NCI-H23 lung
CCRF-CEM leukemia = tested on: CCRF-CEM leukemia
SN12C renal = tested on: SN12C renal
T-47D breast = tested on: T-47D breast
OVCAR-4 ovarian = tested on: OVCAR-4 ovarian
LOX IMVI melanoma = tested on: LOX IMVI melanoma
HT29 colon = tested on: HT29 colon
MDA-N = tested on: MDA-N
SF-295 CNS = tested on: SF-295 CNS
HL-60(TB) leukemia = tested on: HL-60(TB) leukemia
OVCAR-8 ovarian = tested on: OVCAR-8 ovarian
RPMI-8226 leukemia = tested on: RPMI-8226 leukemia
EKVX NSCLC = tested on: EKVX NSCLC
SK-OV-3 ovarian = tested on: SK-OV-3 ovarian
NCI/ADR-RES ovarian = tested on: NCI/ADR-RES ovarian
A498 renal = tested on: A498 renal
CAKI-1 renal = tested on: CAKI-1 renal
NCI-H522 lung = tested on: NCI-H522 lung
OVCAR-3 ovarian = tested on: OVCAR-3 ovarian
A549 NSCLC = tested on: A549 NSCLC
KM12 colon = tested on: KM12 colon
SF-539 CNS = tested on: SF-539 CNS
SNB-19 CNS = tested on: SNB-19 CNS
SK-MEL-5 melanoma = tested on: SK-MEL-5 melanoma
OVCAR-5 ovarian = tested on: OVCAR-5 ovarian
MCF7 breast = tested on: MCF7 breast
MDA-MB-435 = tested on: MDA-MB-435
U251 CNS = tested on: U251 CNS
HS 578T breast = tested on: HS 578T breast
SW-620 colon = tested on: SW-620 colon
SK-MEL-2 melanoma = tested on: SK-MEL-2 melanoma
HCT-15 colon = tested on: HCT-15 colon
RXF 393 renal = tested on: RXF 393 renal
SR leukemia = tested on: SR leukemia
COLO 205 colon = tested on: COLO 205 colon
MOLT-4 leukemia = tested on: MOLT-4 leukemia
NCI-H460 lung = tested on: NCI-H460 lung
MDA-MB-231 breast = tested on: MDA-MB-231 breast
TK-10 renal = tested on: TK-10 renal
UACC-257 melanoma = tested on: UACC-257 melanoma
PC-3 prostate = tested on: PC-3 prostate
UACC-62 melanoma = tested on: UACC-62 melanoma
SK-MEL-28 melanoma = tested on: SK-MEL-28 melanoma
HOP-92 NSCLC = tested on: HOP-92 NSCLC

Structure (SMILES): CC(C)(C)[Si](C)(C)OCC1OC(n2cc(F)c(=O)[nH]c2=O)CC1O[Si](C)(C)C(C)(C)C (stereo not given)
- TGI (SNB-75 CNS): 15.9 µM
- TGI (UO-31 renal): 23 µM
- TGI (DU-145 prostate): 11.3 µM
- TGI (HCC-2998 colon): 3.48 µM
- TGI (K-562 leukemia): 16 µM
- TGI (HOP-62 NSCLC): 30 µM
- TGI (786-0 renal): 20.9 µM
- TGI (M14 melanoma): 30.9 µM
- TGI (ACHN renal): 21.8 µM
- TGI (MALME-3M melanoma): 31.2 µM
- TGI (NCI-H226 lung): 42.9 µM
- TGI (BT-549 breast): 17 µM
- TGI (HCT-116 colon): 19.8 µM
- TGI (SF-268 CNS): 29.8 µM
- TGI (IGROV1 ovarian): 19.7 µM
- TGI (NCI-H23 lung): 19.6 µM
- TGI (CCRF-CEM leukemia): 10.2 µM
- TGI (SN12C renal): 9.43 µM
- TGI (T-47D breast): 12.7 µM
- TGI (OVCAR-4 ovarian): 17.4 µM
- TGI (LOX IMVI melanoma): 20 µM
- TGI (HT29 colon): > 100 µM
- TGI (MDA-N): 18.4 µM
- TGI (SF-295 CNS): 21.4 µM
- TGI (HL-60(TB) leukemia): 12.5 µM
- TGI (OVCAR-8 ovarian): 35.7 µM
- TGI (RPMI-8226 leukemia): 12.9 µM
- TGI (EKVX NSCLC): 21.7 µM
- TGI (SK-OV-3 ovarian): 28.3 µM
- TGI (NCI/ADR-RES ovarian): 35.6 µM
- TGI (A498 renal): 21.1 µM
- TGI (CAKI-1 renal): 25.6 µM
- TGI (NCI-H522 lung): 12.7 µM
- TGI (OVCAR-3 ovarian): 32.5 µM
- TGI (A549 NSCLC): 25.6 µM
- TGI (KM12 colon): 14.7 µM
- TGI (SF-539 CNS): 30.7 µM
- TGI (SNB-19 CNS): 25.3 µM
- TGI (SK-MEL-5 melanoma): 17.1 µM
- TGI (OVCAR-5 ovarian): 33 µM
- TGI (MCF7 breast): 24.9 µM
- TGI (MDA-MB-435): 26.5 µM
- TGI (U251 CNS): 22.5 µM
- TGI (HS 578T breast): 26.4 µM
- TGI (SW-620 colon): 23.1 µM
- TGI (SK-MEL-2 melanoma): 29.7 µM
- TGI (HCT-15 colon): 20.4 µM
- TGI (RXF 393 renal): 16.2 µM
- TGI (SR leukemia): 7.08 µM
- TGI (COLO 205 colon): 19.5 µM
- TGI (MOLT-4 leukemia): 22 µM
- TGI (NCI-H460 lung): 15.7 µM
- TGI (MDA-MB-231 breast): 22 µM
- TGI (TK-10 renal): 13.9 µM
- TGI (UACC-257 melanoma): 15.9 µM
- TGI (PC-3 prostate): 14.2 µM
- TGI (UACC-62 melanoma): 15.7 µM

Structure (SMILES): O=C(O)CNC(=O)c1ccccc1O
- TGI (SNB-75 CNS): > 100 µM
- TGI (UO-31 renal): > 100 µM
- TGI (DU-145 prostate): > 100 µM
- TGI (K-562 leukemia): > 100 µM
- TGI (HOP-62 NSCLC): > 100 µM
- TGI (786-0 renal): > 100 µM
- TGI (M14 melanoma): > 100 µM
- TGI (ACHN renal): > 100 µM
- TGI (MALME-3M melanoma): > 100 µM
- TGI (NCI-H226 lung): > 100 µM
- TGI (BT-549 breast): > 100 µM
- TGI (HCT-116 colon): > 100 µM
- TGI (SF-268 CNS): > 100 µM
- TGI (IGROV1 ovarian): > 100 µM
- TGI (NCI-H23 lung): > 100 µM
- TGI (CCRF-CEM leukemia): > 100 µM
- TGI (SN12C renal): > 100 µM
- TGI (T-47D breast): > 100 µM
- TGI (OVCAR-4 ovarian): > 100 µM
- TGI (LOX IMVI melanoma): > 100 µM
- TGI (HT29 colon): > 100 µM
- TGI (MDA-N): > 100 µM
- TGI (SF-295 CNS): > 100 µM
- TGI (HL-60(TB) leukemia): > 100 µM
- TGI (OVCAR-8 ovarian): > 100 µM
- TGI (RPMI-8226 leukemia): > 100 µM
- TGI (EKVX NSCLC): > 100 µM
- TGI (SK-OV-3 ovarian): > 100 µM
- TGI (NCI/ADR-RES ovarian): > 100 µM
- TGI (SK-MEL-28 melanoma): > 100 µM
- TGI (A498 renal): > 100 µM
- TGI (CAKI-1 renal): > 100 µM
- TGI (NCI-H522 lung): > 100 µM
- TGI (OVCAR-3 ovarian): > 100 µM
- TGI (A549 NSCLC): > 100 µM
- TGI (KM12 colon): > 100 µM
- TGI (SF-539 CNS): > 100 µM
- TGI (SNB-19 CNS): > 100 µM
- TGI (SK-MEL-5 melanoma): > 100 µM
- TGI (OVCAR-5 ovarian): > 100 µM
- TGI (MCF7 breast): > 100 µM
- TGI (MDA-MB-435): > 100 µM
- TGI (U251 CNS): > 100 µM
- TGI (HS 578T breast): > 100 µM
- TGI (SW-620 colon): > 100 µM
- TGI (SK-MEL-2 melanoma): > 100 µM
- TGI (HCT-15 colon): > 100 µM
- TGI (RXF 393 renal): > 100 µM
- TGI (HOP-92 NSCLC): > 100 µM
- TGI (SR leukemia): > 100 µM
- TGI (COLO 205 colon): > 100 µM
- TGI (MOLT-4 leukemia): > 100 µM
- TGI (NCI-H460 lung): > 100 µM
- TGI (MDA-MB-231 breast): > 100 µM
- TGI (TK-10 renal): > 100 µM
- TGI (UACC-257 melanoma): > 100 µM
- TGI (PC-3 prostate): > 100 µM
- TGI (UACC-62 melanoma): > 100 µM
